Results taken from US20200069805A1, “PHARMACEUTICAL COMPOSITIONS WITH SYNCHRONIZED SOLUBILIZER RELEASE” (Lipocine Inc., priority 2003, published 2020).
≈ marks a conversion by molar mass, not a printed value.

Legend:
[1] = cited from earlier work
[2] = Equilibrium aqueous solubility of cilostazol in simulated intestinal fluid with solubilizers; format: physicochemical
Experimental: Solutions of simulated intestinal fluid without enzyme (USP 26, pH 6.8) were prepared over a range of solubilizer concentrations. Excess cilostazol was added and equilibrated with gentle mixing at controlled temperature (37±0.5° C.). The aqueous solutions with excess drug were then filtered ([…] nominal pore size) and the clear filtrate was diluted and assayed by HPLC for cilostazol concentrations.

[3] = immediate release tablet dosage form; high fat meal; cited from earlier work

Compound	equilibrium solubility of the acid addition HCl salt [1]	pKa [1]	water solubility [1]	aqueous solubility at low pH ([1]; low pH, limited by relatively insoluble hydrochloric acid addition salt)	solubility enhancement of cilostazol ([2]; Cremphor RH40 at 0.05% w/v)	solubility enhancement of cilostazol ([2]; Cremphor RH40 at 1% w/v)	increase in solubility of cilostazol over its intrinsic aqueous solubility ([2]; d-a-tocopherol polyethylene glycol 1000 succinate at 0.05% w/v)	increase in solubility of cilostazol over its intrinsic aqueous solubility ([2]; d-a-tocopherol polyethylene glycol 1000 succinate at 1% w/v)	solubility ([2]; simulated intestinal fluid without enzyme (USP 26), fassgf or other biorelevant, thermodynamic from solid, SIF without enzyme pH 6.8, 37 °C, no solubilizer, read-out: intrinsic solubility of cilostazol)	AUC increase [3]	Cmax increase [3]
COc1ccccc1OCCNCC(O)COc1cccc2[nH]c3ccccc3c12 (centres unmarked) [Carvedilol]	about 1 mg/ml	about 7.6	less than 0.001 mg/ml	less than 1 mg/ml							
O=C1CCc2cc(OCCCCc3nnnn3C3CCCCC3)ccc2N1 [cilostazol]					~30%	~5 fold	~60%	~10 fold	6.5 µg/mL (≈ 17.6 µM)	about 25%	about 90%
